The source of these data is patent US20240130367A1, “PLANT GROWTH PROMOTERS” (University of Durham, priority 2020, published 2024).

Each structure is given as a SMILES string. Structures can show the parent of a compound that is named as a salt.

The assay relates to Arabidopsis thaliana wild-type. Briefly: Hypocotyl growth assay under reduced light. It is filed as in vivo. Conditions: hypocotyl, 100 μM; for New length (cm) / New Length: three days; for New length (cm): trials 1, 2, 3 and SAM each with own DMSO control; for New Length: in cm. The text has this: Arabidopsis thaliana wild-type seeds were from laboratory stocks of Columbia (Col-0) and Landsberg erecta (Ler-0) accessions. Arabidopsis thaliana is a dicot. The mutants of gid1 (J. Griffiths, et al., Plant Cell, 2006, 18, 3399-3414) were obtained from Dr. Steve Thomas (Rothamsted Research, UK) and were in a Col-0 background, whilst the della quintuple mutant (S. H. Feng et al. Nature, 2008, 451: 475-479) and ga1-5 (I. Fridborg et al. Plant Cell, 1999, 11: 1019-1031) were in a Ler-0 background and was obtained from the Nottingham Arabidopsis Stock Centre (NASC). The A. thaliana line expressing RGA-GFP (A. L. Silverstone et al. The Plant Cell, 2001, 13: 1555-1565), Col-0 background was obtained from Prof. Keith Lindsey (Durham University, UK). Seeds were plated out 1×MS medium pH 5.8 (T. Murashige and F. Skoog (1962) Physiologia Plantarum 15: 473-497) in petri dishes with a concentration of either 0.8% or 1.2% (w/v) phytoagar for root and hypocotyl measurements, respectively. After sowing seeds were stratified on plates at 4° C. for a minimum of 48 h to achieve synchronous germination. Seedlings were grown for either 7 or 2 days for root and hypocotyl measurements, respectively, prior to treatment with chemicals. For hypocotyl measurements, seeds were sown on nylon mesh (acid resistant monofilament nylon filter mesh fabric; GZ, model number H20M). Seedling were grown in a Percival (CU-36L5D, CLF plant climatics, Emersacker, Germany) with a photoperiod of 16/8 h with a light intensity of either 150 μmol m^2 s^−1 or 50 μmol m^2 s^−1 for root and hypocotyl measurements, respectively, and a temperature of 20±1° C.
After growing as described above seedlings for root assays were transferred to 1.2% (w/v) agar plates containing each chemical at a final concentration of 100 μM (the addition of the chemicals was performed when media had cooled to 50° C. after autoclaving), with an equivalent concentration of DMSO as control. At this stage the positions of the root tips were marked on the petri dish. The plants were subsequently grown vertically and after a further 5 days images of the plates were scanned and the root growth that occurred during the 5 days on chemicals was measured using ImageJ software. 18 seedlings were measured for each treatment. For hypocotyl measurements the assay performed was adapted from de Lucas et al. (2008, supra). After growing seedlings as described above, the nylon mesh was transferred across to the plates containing chemical. The plants were then placed in vertical orientation for three days under reduced light intensity (by covering plates with 2 layers of 80 g·m^2 white paper) before the plates were scanned. The measurement of hypocotyl was done using ImageJ software. At least 15 seedlings were measured for each plate.
To determine the mechanism of A1 action via the GA/DELLA signaling pathway, the response of A1 in a series of GA synthesis/signalling mutants was investigated. For these assays the focus was on hypocotyl growth, because it is well established that DELLA can inhibit the binding of PIFs to their target promoter leading to a reduction in GA-regulated hypocotyl growth (A. Castillon, H. Shen and E. Huq (2007) Trends in Plant Science, 12: 514-521.; de Lucas et al. 2008, supra; S. H. Feng et al. 2008, supra. To establish the use of A1 in this assay, hypocotyl growth was first tested by growing the seedlings on agar plates containing A1, with GA and PAC used as positive and negative controls, respectively, for three days in reduced light conditions to achieve a balance between maximum and minimum hypocotyl growth. […] Having established the hypocotyl assay, DELLA-dependence of the A1 effect was then confirmed genetically. To test this, a mutant line that lacks all DELLA (GAI, RGA, RGL1, RGL2 and RGL3) function was used.
The effect of additional compounds on hypocotyl growth was investigated using the same methods as described above (100 μM of each compound was used). […]

Where [1] appears, read: relative to the DMSO control of the same trial.

On to `CCCCCCOc1ccccc1S(=O)(=O)NCCN.Cl` [JAR73, N-(2′-aminoethyl)-2-hexoxybenzene-1-sulfonamide Hydrogen Chloride], for which the “New length (cm)” value is 0.202 cm. Further, the “Relative growth (cm)” value under setting [1] is recorded as −0.1618.
On to `CCOCCOc1ccc2ccccc2c1S(=O)(=O)NCCN.Cl` [JAR144, N-(2′-aminoethyl)-2-(2″-ethoxyethoxy)naphthalene-1-sulfonamide Hydrogen Chloride], for which the “New length (cm)” value was determined as 0.6007 cm. The “Relative growth (cm)” value under setting [1] is recorded as 0.4927.
Regarding `COc1ccccc1S(=O)(=O)NCCN.Cl` [JAR69, N-(2′-aminoethyl)-2-methoxybenzene-1-sulfonamide Hydrogen Chloride], the “New length (cm)” value stood at 0.316 cm. Under setting [1], the “Relative growth (cm)” value worked out at 0.3112.
On the same counts, the results for `CCOCCOc1ccc(S(=O)(=O)NCCN)c2ccccc12.Cl` [JAR145, N-(2′-aminoethyl)-4-(2″-ethoxyethoxy)naphthalene-1-sulfonamide Hydrogen Chloride] are 0.6424 cm and 0.5965.
As to `CCOCCOc1c(Cl)cc(S(=O)(=O)NCCN)c2ccccc12.Cl` [JAR141, N-(2-azaniumylethyl)-3-chloro-4-(2-ethoxyethoxy)naphthalene-1-sulfonamide Chloride], the “New length (cm)” value is reported as 0.4387 cm. In addition, the “Relative growth (cm)” value under setting [1] was determined as 0.09026.
For the molecule `CCOC(=O)CN(CCN)S(=O)(=O)c1cccc2ccccc12.Cl` [SAM3, ethyl 2″-[N-(2′-aminoethyl)naphthalene-1-sulfonamido]acetate Hydrogen Chloride], the “New length (cm)” value was found to be 0.272 cm. Besides, the “Relative growth (cm)” value under setting [1] is given as 0.3807.
On to `CCCCCOc1ccc2ccccc2c1S(=O)(=O)NCCN.Cl` [JAR68, N-(2′-aminoethyl)-2-pentoxynaphthalene-1-sulfonamide Hydrogen Chloride], for which the “New length (cm)” value is on record as 0.197 cm. Moreover, the “Relative growth (cm)” value under setting [1] is on record as −0.1826.
On the same counts, the results for `C=CCN(CCN)S(=O)(=O)c1cccc2ccccc12.Cl` [SAM1, N-(2′-aminolethyl)-N-(prop-2″-en-1′-yl)naphthalene-1-sulfonamide Hydrogen Chloride] are 0.193 cm and −0.0203.
In the case of `NCCNS(=O)(=O)c1ccc([N+](=O)[O-])cc1` [JAR483, N-(2′-aminoethyl)-4-nitrobenzene-1-sulfonamide Hydrochloride], the “New Length” value is listed as 0.8707. For the same molecule, the “Relative growth (cm)” value (relative to DMSO control) is given as 0.2701.
In the case of `CCCc1ccc(S(=O)(=O)NCCN)cc1` [JAR489, N-(2-aminoethyl)-4-propylbenzene-1-sulfonamide], the “New Length” value worked out at 0.9133. Besides, the “Relative growth (cm)” value (relative to DMSO control) is given as 0.3323.
Turning to `Cl.NCCNS(=O)(=O)c1cccc2ncccc12` [JAR30, N-(2′-aminoethyl)-quinoline-5-sulfonamide Hydrogen Chloride], the “New length (cm)” value stood at 0.333 cm. For the same molecule, under setting [1], the “Relative growth (cm)” value amounted to 0.417.
On to `NCCCNS(=O)(=O)c1cccc2ccccc12` [JAR481, N-(3′-aminopropyl)naphthalene-1-sulfonamide Hydrochloride], for which the “New Length” value was determined as 0.8072. For the same molecule, the “Relative growth (cm)” value (relative to DMSO control) amounted to 0.1775.
On to `CN(CCN)S(=O)(=O)c1cccc2ccccc12` [JAR491, N-(2′-aminoethyl)-N-methylnaphthalene-1-sulfonamide], for which the “New Length” value worked out at 0.8285. The “Relative growth (cm)” value (relative to DMSO control) was found to be 0.2085.
In the same order, the values of `CC(C)(C)c1ccc(S(=O)(=O)NCCN)cc1` [JAR484, N-(2′-aminoethyl)-4-tent-butylbenzene-1-sulfonamide Hydrochloride] are 0.8713 and 0.271.
On the same counts, the results for `CNCCNS(=O)(=O)c1cccc2ccccc12` [JAR493, N-[2′-(methylamino)ethyl]naphthalene-1-sulfonamide Hydrochloride] are 0.897 and 0.3085.
For the molecule `NCCNS(=O)(=O)c1cccc2c(Cl)cccc12` [JAR482, N-(2′-aminoethyl)-5-chloronaphthalene-1-sulfonamide Hydrochloride], the “New Length” value is 0.5888.
With `Cl.NCCNS(=O)(=O)c1cccc2ccncc12` [JAR31, N-(2′-aminoethyl)isoquinoline-8-sulfonamide Hydrogen Chloride], the “New length (cm)” value worked out at 0.274 cm. For the same molecule, the “Relative growth (cm)” value under setting [1] is recorded as 0.166.
`Cl.NCCNS(=O)(=O)C1CCCCC1` [JAR488, N-(2′-aminoethyl)cyclohexanesulfonamide Hydrochloride]: the “New Length” value is on record as 0.668. For the setting “relative to DMSO control”, the “Relative growth (cm)” value is on record as −0.02555.
On to `Cl.NCCNS(=O)(=O)c1ccc2c3c(cccc13)C(=O)N2` [JAR67, N-(2′-aminoethyl)-1,8-naphtholactam-5-sulfonamide Hydrogen Chloride], for which the “New length (cm)” value is 0.187 cm. Further, the “Relative growth (cm)” value under setting [1] is given as −0.2241.
As for `NCCNS(=O)(=O)c1cccc2cccnc12` [JAR13, N-(2′-aminoethyl)quinoline-8-sulfonamide], the “New length (cm)” value amounted to 0.212 cm. For the same molecule, under setting [1], the “Relative growth (cm)” value is reported as −0.09787.
In the same order, the values of `COc1ccc(S(=O)(=O)NCCN)cc1.Cl` [JAR71, N-(2′-aminoethyl)-4-methoxybenzene-1-sulfonamide Hydrogen Chloride] are 0.331 cm and 0.3734.
Turning to `Cl.NCCNS(=O)(=O)c1cccc2cnccc12` [JAR32, N-(2′-aminoethyl)isoquinoline-5-sulfonamide Hydrogen Chloride], the “New length (cm)” value is 0.202 cm.
As for `O=S(=O)(NCCO)c1cccc2ccccc12` [JAR88, N-(2-hydroxyethyl)naphthalene-1-sulfonamide], the “New length (cm)” value was determined as 0.2827 cm. For the same molecule, the “Relative growth (cm)” value under setting [1] is −0.2975.
On to `NCCNS(=O)(=O)c1ccccc1F` [JAR480, N-(2′-aminoethyl)-2-fluorobenzene-1-sulfonamide Hydrochloride], for which the “New Length” value stood at 0.8424. Besides, under “relative to DMSO control”, the “Relative growth (cm)” value was determined as 0.2289.
As for `COc1ccc2ccccc2c1S(=O)(=O)NCCN.Cl` [JAR36, N-(2′-aminoethyl)-2-methoxynaphthalene-1-sulfonamide Hydrogen Chloride], the “New length (cm)” value worked out at 0.329 cm. Further, under setting [1], the “Relative growth (cm)” value was determined as 0.4.
Consider `CCOC(=O)C(C)N(CCN)S(=O)(=O)c1cccc2ccccc12.Cl` (centres unmarked) [SAM4, ethyl 2-[N-(2-azaniumylethyl)naphthalene-1-sulfonamido]propanoate Chloride], for which the “New length (cm)” value is listed as 0.228 cm. For the same molecule, the “Relative growth (cm)” value under setting [1] is recorded as 0.1574.
With `Cl.NCCNS(=O)(=O)c1ccc(-c2ccccc2)cc1` [JAR479, N-(2′-aminoethyl)-[1,1″-biphenyl]-4-sulfonamide Hydrochloride], the “New Length” value is recorded as 0.7771. Moreover, the “Relative growth (cm)” value (relative to DMSO control) was determined as 0.1335.
On the same counts, the results for `NCCNS(=O)(=O)c1cccc(F)c1` [JAR478, N-(2-aminoethyl)-3-fluorobenzene-1-sulfonamide Hydrochloride] are 0.8424 and 0.2289.
As for `CCCCCOc1ccc(S(=O)(=O)NCCN)c2ccccc12.Cl` [JAR70, N-(2′-aminoethyl)-4-pentoxynaphthalene-1-sulfonamide Hydrogen Chloride], the “New length (cm)” value came out at 0.173 cm. Besides, the “Relative growth (cm)” value under setting [1] was −0.2822.
